Reference: patent publication US6426369B1, “Oxethazaine as antimicrobial agent” (Eisai Co., Ltd., priority 1997, dated 2002)
Values after ≈ are worked out from the molar mass of the structure shown.

Assays:
H. pylori [1] = assay: Antimicrobial activity test 2: time for sterilizing H. pylori (viable cell count in Brucella broth); assay type: cell-based, Helicobacter pylori
Experimental: A solution of the test compound was added to Brucella broth containing 5% fetal bovine serum, cultured under slightly aerobic conditions at 37° C., and the vial microbe cell number in Brucella agar containing 7% horse blood was counted at predetermined intervals. The above compound (1) was dissolved in a 1% aqueous solution of […] (DMSO), and the above compound (2) was dissolved in water to prepare a solution of each test compound. “cfu” in Tables and Figures means “colony forming unit”.

H. pylori [2] = assay: Antimicrobial activity test 3: oxethazaine in combination with compound (II), checker board method; assay type: cell-based; conditions: Helicobacter pylori
From the text: In each Table, the concentration of oxethazaine is shown vertically, and the concentration of compound (II) is shown horizontally. In each Table, “−” indicates the inhibited growth of H. pylori (presence of antimicrobial activity), and “+” indicates the growth of H. pylori (absence of antimicrobial activity). […] It is assumed to be present when the MIC of either oxethazaine or PPI is reduced by ½ (when anti-H. pylori activity is not recognized when the concentrations of both oxethazaine and PPI are reduced to ¼, but anti-H. pylori activity is recognized when the concentration of one compound is reduced to ¼ and simultaneously the concentration of the other compound is reduced to ½.).

Gram-positive bacteria = assay: Antimicrobial activity (MIC) of oxethazaine and structure analogues against Gram-positive bacteria; assay type: cell-based

`CN(C(=O)CN(CCO)CC(=O)N(C)C(C)(C)Cc1ccccc1)C(C)(C)Cc1ccccc1` [Oxethazaine, 2,2′-[(2-hydroxyethyl)amino]bis[N-(1,1-dimethyl-2-phenylethyl)-N-methylacetamide]] was tested, and the “Viable microbe cell number” value (H. pylori [1]; EH12, 1 MIC, 0 h) was 5.60 log10cfu/ml, the “Viable microbe cell number” value (H. pylori [1]; EH12, 1 MIC, 3 h) was 5.67 log10cfu/ml and the “Viable microbe cell number” value (H. pylori [1]; EH12, 1 MIC, 6 h) was 5.61 log10cfu/ml. For the same compound, the “Viable microbe cell number” value (H. pylori [1]; EH12, 1 MIC, 9 h) was 5.68 log10cfu/ml, the “Viable microbe cell number” value (H. pylori [1]; EH12, 1 MIC, 24 h) was 4.51 log10cfu/ml and the “Viable microbe cell number” value (H. pylori [1]; EH12, 2 MIC, 0 h) was 5.60 log10cfu/ml. The “Viable microbe cell number” value (H. pylori [1]; EH12, 2 MIC, 3 h) was 1.78 log10cfu/ml, the “Viable microbe cell number” value (H. pylori [1]; EH12, 2 MIC, 6 h) was 0 log10cfu/ml and the “Viable microbe cell number” value (H. pylori [1]; EH12, 2 MIC, 9 h) was 0 log10cfu/ml. The “Viable microbe cell number” value (H. pylori [1]; EH12, 2 MIC, 24 h) was 0 log10cfu/ml, the “Viable microbe cell number” value (H. pylori [1]; EH12, 4 MIC, 0 h) was 5.60 log10cfu/ml and the “Viable microbe cell number” value (H. pylori [1]; EH12, 4 MIC, 3 h) was 0 log10cfu/ml. The “Viable microbe cell number” value (H. pylori [1]; EH12, 4 MIC, 6 h) was 0 log10cfu/ml, the “Viable microbe cell number” value (H. pylori [1]; EH12, 4 MIC, 9 h) was 0 log10cfu/ml and the “Viable microbe cell number” value (H. pylori [1]; EH12, 4 MIC, 24 h) was 0 log10cfu/ml. For the same compound, the “Viable microbe cell number” value (H. pylori [1]; EH12, ½ MIC, 0 h) was 5.60 log10cfu/ml, the “Viable microbe cell number” value (H. pylori [1]; EH12, ½ MIC, 3 h) was 5.77 log10cfu/ml and the “Viable microbe cell number” value (H. pylori [1]; EH12, ½ MIC, 6 h) was 5.19 log10cfu/ml. For the same compound, the “Viable microbe cell number” value (H. pylori [1]; EH12, ½ MIC, 9 h) was 5.71 log10cfu/ml, the “Viable microbe cell number” value (H. pylori [1]; EH12, ½ MIC, 24 h) was 5.27 log10cfu/ml and the sterilization curve (H. pylori [1]; FIGS. 1 to 4, compared with the antibiotic) was “rapidly dropping sterilization curve”. For the same compound, the “Viable microbe cell number” value (H. pylori [1]; NCTC 11637, 1 MIC, 0 h) was 5.70 log10cfu/ml, the “Viable microbe cell number” value (H. pylori [1]; NCTC 11637, 1 MIC, 3 h) was 5.24 log10cfu/ml and the “Viable microbe cell number” value (H. pylori [1]; NCTC 11637, 1 MIC, 6 h) was 4.98 log10cfu/ml. The “Viable microbe cell number” value (H. pylori [1]; NCTC 11637, 1 MIC, 9 h) was 4.64 log10cfu/ml, the “Viable microbe cell number” value (H. pylori [1]; NCTC 11637, 1 MIC, 24 h) was 4.30 log10cfu/ml and the “Viable microbe cell number” value (H. pylori [1]; NCTC 11637, 2 MIC, 0 h) was 5.70 log10cfu/ml. The “Viable microbe cell number” value (H. pylori [1]; NCTC 11637, 2 MIC, 3 h) was 1.90 log10cfu/ml, the “Viable microbe cell number” value (H. pylori [1]; NCTC 11637, 2 MIC, 6 h) was 0 log10cfu/ml and the “Viable microbe cell number” value (H. pylori [1]; NCTC 11637, 2 MIC, 9 h) was 0 log10cfu/ml. For the same compound, the “Viable microbe cell number” value (H. pylori [1]; NCTC 11637, 2 MIC, 24 h) was 0 log10cfu/ml, the “Viable microbe cell number” value (H. pylori [1]; NCTC 11637, 4 MIC, 0 h) was 5.70 log10cfu/ml and the “Viable microbe cell number” value (H. pylori [1]; NCTC 11637, 4 MIC, 3 h) was 0 log10cfu/ml. For the same compound, the “Viable microbe cell number” value (H. pylori [1]; NCTC 11637, 4 MIC, 6 h) was 0 log10cfu/ml, the “Viable microbe cell number” value (H. pylori [1]; NCTC 11637, 4 MIC, 9 h) was 0 log10cfu/ml and the “Viable microbe cell number” value (H. pylori [1]; NCTC 11637, 4 MIC, 24 h) was 0 log10cfu/ml. The “Viable microbe cell number” value (H. pylori [1]; NCTC 11637, ½ MIC, 0 h) was 5.70 log10cfu/ml, the “Viable microbe cell number” value (H. pylori [1]; NCTC 11637, ½ MIC, 3 h) was 5.48 log10cfu/ml and the “Viable microbe cell number” value (H. pylori [1]; NCTC 11637, ½ MIC, 6 h) was 5.27 log10cfu/ml. The “Viable microbe cell number” value (H. pylori [1]; NCTC 11637, ½ MIC, 9 h) was 5.11 log10cfu/ml, the “Viable microbe cell number” value (H. pylori [1]; NCTC 11637, ½ MIC, 24 h) was 5.51 log10cfu/ml and the “Viable microbe cell number” value (H. pylori [1]; NCTC 11916, 1 MIC, 0 h) was 5.72 log10cfu/ml. For the same compound, the “Viable microbe cell number” value (H. pylori [1]; NCTC 11916, 1 MIC, 3 h) was 6.04 log10cfu/ml, the “Viable microbe cell number” value (H. pylori [1]; NCTC 11916, 1 MIC, 6 h) was 5.92 log10cfu/ml and the “Viable microbe cell number” value (H. pylori [1]; NCTC 11916, 1 MIC, 9 h) was 5.84 log10cfu/ml. The “Viable microbe cell number” value (H. pylori [1]; NCTC 11916, 1 MIC, 24 h) was 4.67 log10cfu/ml, the “Viable microbe cell number” value (H. pylori [1]; NCTC 11916, 2 MIC, 0 h) was 5.77 log10cfu/ml and the “Viable microbe cell number” value (H. pylori [1]; NCTC 11916, 2 MIC, 3 h) was 3.63 log10cfu/ml. For the same compound, the “Viable microbe cell number” value (H. pylori [1]; NCTC 11916, 2 MIC, 6 h) was 2.83 log10cfu/ml, the “Viable microbe cell number” value (H. pylori [1]; NCTC 11916, 2 MIC, 9 h) was 2.61 log10cfu/ml and the “Viable microbe cell number” value (H. pylori [1]; NCTC 11916, 2 MIC, 24 h) was 0 log10cfu/ml. The “Viable microbe cell number” value (H. pylori [1]; NCTC 11916, 4 MIC, 0 h) was 5.77 log10cfu/ml, the “Viable microbe cell number” value (H. pylori [1]; NCTC 11916, 4 MIC, 3 h) was 0 log10cfu/ml and the “Viable microbe cell number” value (H. pylori [1]; NCTC 11916, 4 MIC, 6 h) was 0 log10cfu/ml. For the same compound, the “Viable microbe cell number” value (H. pylori [1]; NCTC 11916, 4 MIC, 9 h) was 0 log10cfu/ml, the “Viable microbe cell number” value (H. pylori [1]; NCTC 11916, 4 MIC, 24 h) was 0 log10cfu/ml and the “Viable microbe cell number” value (H. pylori [1]; NCTC 11916, ½ MIC, 0 h) was 5.77 log10cfu/ml. For the same compound, the “Viable microbe cell number” value (H. pylori [1]; NCTC 11916, ½ MIC, 3 h) was 5.70 log10cfu/ml, the “Viable microbe cell number” value (H. pylori [1]; NCTC 11916, ½ MIC, 6 h) was 6.35 log10cfu/ml and the “Viable microbe cell number” value (H. pylori [1]; NCTC 11916, ½ MIC, 9 h) was 6.32 log10cfu/ml. For the same compound, the “Viable microbe cell number” value (H. pylori [1]; NCTC 11916, ½ MIC, 24 h) was 6.44 log10cfu/ml, the MIC (H. pylori [2]; NCTC11637, NCTC 11637) was 25 µg/mL and the MIC (H. pylori [2]; NCTC11639, NCTC 11639) was 50 µg/mL. The MIC (Gram-positive bacteria; Enterococcus faecalis, E. faecalis RIMD 3116001) was 25 µg/mL (≈ 53.5 µM), the MIC (Gram-positive bacteria; Staphylococcus aureus, FDA209, S. aureus FDA 209-P) was 12.5 µg/mL (≈ 26.7 µM) and the MIC (Gram-positive bacteria; Staphylococcus epidermidis, ATCC12228, S. epidermidis ATCC 12228) was 6.25 µg/mL (≈ 13.4 µM). For the same compound, the “effect on Gram-positive bacteria” value (Gram-positive bacteria; conclusion) was “excellent effect”.
